Patent US6689758B1, “Gene therapy method” (SmithKline Beecham Corporation, priority 1998, dated 2004)

Experiments:
[1] = tested on: human cell co-culture system; experiment: In vitro angiogenesis co-culture system (tubule formation, PECAM-1 staining); format: cell-based; conditions: 20 μM, negative control; 11 days co-culture
Protocol: Egr-1 under the control of the hCMV promoter (Houston et al, Arterioscler. Thromb. Vasc. Biol., 19; 281-289, 1999) was transfected into a human cell co-culture system designed to measure angiogenesis in vitro. The angiogenesis kit (TCS Biologicals) was used as described according to the manufacturer's instructions using VEGF protein (2 ng/ml) and suramin (20 μM) as positive and negative controls respectively for angiogenesis.
Optimisation of transfection in the co-culture system was performed using pGL3 control luciferase (Promega) with 1.0 μg and 0.5 μg CMV-β, gal as a normalising plasmid for transfection control. Two ratios of lipid: DNA (v/w) were used; 2:1 and 4:1 (FIG. 3a.). CMV Egr-1 DNA was transfected at 0.5, 1.0, 1.5 and 2.5 μg per well in triplicate in a 24 well microtitre plate using Mirus Transit reagent (Cambridge Biosciences) at a ratio of 2:1 v/w DNA. VEGF protein positive control and suramin negative control was added to triplicate wells. After 11 days co-culture angiogenesis was determined by staining of cells for the endothelial cell marker PECAM-1 and visualisation using BCIP/NBT substrate.
Representative images of tubule formation using all four doses of Egr-1 expression plasmid together with VEGF (positive control) and suramin (negative control) were captured and processed by image analysis using Quantimet 600 image analyser and associated software. […]

rat excisional wounds = experiment: Rat excisional wound healing model after particle mediated gene transfer; format: in vivo, Sprague Dawley rats
Protocol: Eighteen male Sprague Dawley rats weighing 250g were anaesthetised under isoflorane in a 2:1 mixture of oxygen/nitrous oxide. Two sites of transfection (8 cm from the skull, 1.5 cm either side of the spine) on the rat dorsum were prepared by firstly clipping the pelt then shaving with a razor. Two transfections were carried out per wound site, 8 mm apart, by accelerating plasmid/gold complexes of either Egr-1 or β-galactosidase into the skin at 350 psi. Total amount of DNA was not less than 1.7 μg per transfection (equalling 3.4 μg per wound). […]
Wound area was determined using image analysis and the healing expressed as a increase in percent of original wound area. Statistical significances of differences between treated and control groups were evaluated using a […] Mann-Whitney test.
Each wound per time point after dissection was bisected horizontally. […] Using this histological stain, key markers of wound healing was assessed including re-epithelialisation and collagen content and comparisons made between treated and control sections.
Immunocytochemistry and image analysis was performed in order to quantify the differences seen using routine histology. […] Area and intensity of staining was measured using image analysis and plotted as a graph. Statistical significant differences between treated and control groups were evaluated using a Man-Whitney nonparametric test.

HeLa cells = experiment: Transient transfection of reporter plasmid pSVSRE5 with pFA-MEK1 into HeLa cells; format: cell-based; conditions: co-transfected pFA-MEK1 vs pFA-dbd
Description: We have concentrated on SRE5. The novel SRE 5 with its associated Ets transcription factor binding sites was synthesised as a double stranded oligonucleotide and inserted into the Nhe I site upstream of a SV40 minimal promoter vector (pSV40). SRE5 (SEQ ID NOS:7-8) has the sequence: […]
The resulting reporter plasmid pSVSRE5 was transiently transfected into HeLa cells together with plasmids pFA-dbd (construct encoding the Gal4 DNA binding domain (dbd) ) or pFA-MEK1 (construct encoding a fusion protein of the Gal4 DNA binding domain (dbd) and the kinase domain of the MAP kinase kinase MEK1). The Gal4-MEK1 fusion protein is constitutively active and phosphorylates Elk1 and SRF, bound to SRE5.

Cc1ccc(C(=O)Nc2ccc(S(=O)(=O)O)c3cc(S(=O)(=O)O)cc(S(=O)(=O)O)c23)cc1NC(=O)c1cccc(NC(=O)Nc2cccc(C(=O)Nc3cc(C(=O)Nc4ccc(S(=O)(=O)O)c5cc(S(=O)(=O)O)cc(S(=O)(=O)O)c45)ccc3C)c2)c1 [suramin]
tubule formation [1]: Decreased tubule formation

β-galactosidase
collagen I immunostaining (image analysis) (rat excisional wounds; 2 days post wounding, β-galactosidase compared to Egr-1): significantly more collagen
wounds with complete re-epithelialisation (rat excisional wounds; 6 days post wounding): 0%

B1: SRE5: novel SRE 5 with associated Ets sites, double stranded oligonucleotide inserted upstream of SV40 minimal promoter (reporter plasmid pSVSRE5) (nucleic acid)
chain 1: AGGCTGCGACCCGGAAATGCCATATAAGAAGCAGGAAGGATCCCCCCGCCGG
chain 2: AGCCGGCGGGGGGATCCTTCCTGCTTCTTATATGGCATTTCCGGGTCGCAGC
modifications: double-stranded insert cloned upstream of SV40 minimal promoter in reporter plasmid, further chemistry not given here
activation by the presence of MEK1 (reporter) (HeLa cells): 3 fold
